Test results: patent US12077503B2, “Substituted cyclic amides and their use as herbicides” (FMC CORPORATION, priority 2015, dated 2024)

Tests used:
Format in all cases: in vivo
[1] = system: ragweed (common ragweed, Ambrosia elatior); test: Test A preemergence; details: Ambrosia artemisiifolia, pre-emergence, 240 h; for pest or weed control at 125 g/ha: 125 g ai/ha, preemergence, 0 to 100 scale where 0 is no effect and 100 is complete control, read-out: Ragweed plant response rating; for pest or weed control at 500 g/ha: 500 g ai/ha, Preemergence, visual injury vs untreated controls after approximately 10 d, read-out: Ragweed plant response rating (0 to 100 scale where 0 is no effect and 100 is complete control)
How it was run: (§1)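 Compounds were formulated in a non-phytotoxic solvent mixture with surfactant and applied as a preemergence directed soil spray after seeding, or sprayed postemergence over plants 2 to 10 cm tall at the one- to two-leaf stage. Evaluation after about 10 d compared treated with untreated controls, using a scale from 0 (no effect) to 100 (complete control).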

[2] = system: Kochia (Kochia scoparia); test: Test A preemergence; details: Bassia scoparia, pre-emergence, 240 h; for pest or weed control at 125 g/ha: 125 g ai/ha, preemergence, 0 to 100 scale where 0 is no effect and 100 is complete control, read-out: Kochia plant response rating; for pest or weed control at 500 g/ha: 500 g ai/ha, Preemergence, visual injury vs untreated controls after approximately 10 d, read-out: Kochia plant response rating (0 to 100 scale where 0 is no effect and 100 is complete control)
How it was run: as §1

[3] = system: ryegrass, Italian (Italian ryegrass, Lolium multiflorum); test: Test A preemergence; details: Lolium multiflorum, pre-emergence, 240 h; for pest or weed control at 125 g/ha: 125 g ai/ha, preemergence, 0 to 100 scale where 0 is no effect and 100 is complete control, read-out: Ryegrass, Italian plant response rating; for pest or weed control at 500 g/ha: 500 g ai/ha, Preemergence, visual injury vs untreated controls after approximately 10 d, read-out: Ryegrass, Italian plant response rating (0 to 100 scale where 0 is no effect and 100 is complete control)
How it was run: as §1

[4] = system: pigweed (Amaranthus retroflexus); test: Test A preemergence; details: Amaranthus retroflexus, pre-emergence, 240 h; for pest or weed control at 125 g/ha: 125 g ai/ha, preemergence, 0 to 100 scale where 0 is no effect and 100 is complete control, read-out: Pigweed plant response rating; for pest or weed control at 500 g/ha: 500 g ai/ha, Preemergence, visual injury vs untreated controls after approximately 10 d, read-out: Pigweed plant response rating (0 to 100 scale where 0 is no effect and 100 is complete control)
[5] = system: barnyardgrass (Echinochloa crus-galli); test: Test A preemergence; details: Echinochloa crus-galli, pre-emergence, 240 h; for pest or weed control at 125 g/ha: 125 g ai/ha, preemergence, 0 to 100 scale where 0 is no effect and 100 is complete control, read-out: Barnyardgrass plant response rating; for pest or weed control at 500 g/ha: 500 g ai/ha, Preemergence, visual injury vs untreated controls after approximately 10 d, read-out: Barnyardgrass plant response rating (0 to 100 scale where 0 is no effect and 100 is complete control)
How it was run: as §1

[6] = system: giant foxtail (Setaria faberii); test: Test A preemergence; details: Setaria faberi, pre-emergence, 240 h; for pest or weed control at 125 g/ha: 125 g ai/ha, preemergence, 0 to 100 scale where 0 is no effect and 100 is complete control, read-out: Foxtail, Giant plant response rating; for pest or weed control at 500 g/ha: 500 g ai/ha, Preemergence, visual injury vs untreated controls after approximately 10 d, read-out: Foxtail, Giant plant response rating (0 to 100 scale where 0 is no effect and 100 is complete control)
How it was run: as §1

[7] = system: rice (Oryra sativa); test: Test B flooded paddy test; details: Oryza sativa, Flood, 250 g ai/ha; scale of 0 to 100 where 0 is no effect and 100 is complete control; read-out: Rice plant response rating
How it was run: (§2)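 Flooding to 3 cm over soil accompanied treatment, which consisted of adding compound to the standing water around 2-leaf plants; depth was then maintained. Visual assessment versus controls followed at 13 to 15 d (scale 0–100, 0 meaning no effect).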

[8] = system: barnyardgrass (Echinochloa crus-galli); test: Test B flooded paddy test; details: Echinochloa crus-galli, Flood, 250 g ai/ha; scale of 0 to 100 where 0 is no effect and 100 is complete control; read-out: Barnyardgrass plant response rating
How it was run: as §2

[9] = system: sedge, umbrella (small-flower umbrella sedge, Cyperus difformis); test: Test B flooded paddy test; details: Cyperus difformis, Flood, 250 g ai/ha; scale of 0 to 100 where 0 is no effect and 100 is complete control; read-out: Sedge, Umbrella plant response rating
How it was run: as §2

[10] = system: ducksalad (Heteranthera limosa); test: Test B flooded paddy test; details: Heteranthera limosa, Flood, 250 g ai/ha; scale of 0 to 100 where 0 is no effect and 100 is complete control; read-out: Ducksalad plant response rating
How it was run: as §2

[11] = system: wheat (Triticum aestivum); test: Test A postemergence; details: Triticum aestivum, post-emergence, 240 h, 125 g ai/ha, postemergence, visual injury rating after approximately 10 d; read-out: Wheat plant response rating (0 to 100 scale, 0 no effect, 100 complete control)
How it was run: as §1

[12] = system: ragweed (common ragweed, Ambrosia elatior); test: Test A postemergence; details: Ambrosia artemisiifolia, post-emergence, 240 h, 125 g ai/ha, postemergence, visual injury rating after approximately 10 d; read-out: Ragweed plant response rating (0 to 100 scale, 0 no effect, 100 complete control)
How it was run: as §1

[13] = system: ryegrass, Italian (Italian ryegrass, Lolium multiflorum); test: Test A postemergence; details: Lolium multiflorum, post-emergence, 240 h, 125 g ai/ha, postemergence, visual injury rating after approximately 10 d; read-out: Ryegrass, Italian plant response rating (0 to 100 scale, 0 no effect, 100 complete control)
How it was run: as §1

[14] = system: giant foxtail (Setaria faberii); test: Test A postemergence; details: Setaria faberi, post-emergence, 240 h, 125 g ai/ha, postemergence, visual injury rating after approximately 10 d; read-out: Foxtail, Giant plant response rating (0 to 100 scale, 0 no effect, 100 complete control)
How it was run: as §1

Row | SMILES | pest or weed control at 125 g/ha [1] | pest or weed control at 500 g/ha [1] | pest or weed control at 125 g/ha [2] | pest or weed control at 500 g/ha [2] | pest or weed control at 125 g/ha [3] | pest or weed control at 500 g/ha [3] | pest or weed control at 125 g/ha [4] | pest or weed control at 500 g/ha [4] | pest or weed control at 125 g/ha [5] | pest or weed control at 500 g/ha [5] | pest or weed control at 125 g/ha [6] | pest or weed control at 500 g/ha [6] | pest or weed control at 250 g/ha [7] | pest or weed control at 250 g/ha [8] | pest or weed control at 250 g/ha [9] | pest or weed control at 250 g/ha [10] | plant injury at 125 g/ha [11] | pest or weed control at 125 g/ha [12] | pest or weed control at 125 g/ha [13] | pest or weed control at 125 g/ha [14]
1 | COc1c(F)ccc([C@H]2CN(C)C(=O)[C@@H]2C(=O)Nc2ccccc2F)c1Cl [Compound 892] | 20% | 50% | 70% | 90% | 30% | 90% | 0% | 40% | 100% | 100% | 100% | 100% | 0% | 65% | 0% | 80% | 0% | 0% | 60% | 90%
2 | COc1c(F)ccc([C@H]2CN(C)C(=O)[C@@H]2C(=O)Nc2ccc(F)c(F)c2F)c1Cl [Compound 895] | 0% | 0% | 90% | 90% | 90% | 70% | 50% | 50% | 90% | 100% | 90% | 90% | 0% | 75% | 0% | 85% | 40% | 0% | 60% | 90%
3 | COc1c(F)ccc([C@H]2CN(C)C(=O)[C@@H]2C(=O)Nc2ccccc2C(F)(F)F)c1Cl [Compound 896] | 0% | 0% | 30% | 50% | 40% | 70% | 20% | 40% | 90% | 90% | 90% | 100% | 20% | 45% | 0% | 25% | 30% | 0% | 50% | 90%
